Where “and” joins values, the source holds several entries; their conditions need not be identical. Identical values can stand only once. Like-named read-outs stand apart in the source and are kept apart here.
Legend:
[1] = test system: HT29 human colon carcinoma cell line; test: MTT growth inhibition assay, single agents and fixed-ratio combinations with elsamitrucin (Chou-Talalay, CalcuSyn), HT29; assay type: cell-based
Description: (§1) These individual agents and their combinations were evaluated for in vitro activity against the HT29 colon carcinoma, SKMES non-small cell lung carcinoma, and Daudi B-lymphoblastic cell lines. Cell growth in 96-well microculture plates was determined with a semi-automated MTT assay. Efficacies of drug combinations were analyzed according to the methods of Chou and Talalay, utilizing CalcuSyn software. Twenty-one in vitro experiments were conducted to determine the individual and combined growth inhibitory activities of elsamitrucin and the ten selected agents in the three cell lines.
(§2) b. Cell Lines. The human HT29 colon carcinoma, SKMES non-small cell lung carcinoma, and Daudi B-lymphoblastic cell lines were originally obtained from ATCC (American Type Culture Collection). These cell lines have been maintained and stored as frozen stocks. […] The medium for Daudi cells was additionally supplemented with 1 mM sodium pyruvate.
(§3) c. Growth Inhibition Assay. Anti-proliferative activities against the HT29, SKMES, and Daudi cell lines were evaluated in vitro by the MTT assay. Cells (1,500-2,000 cells/well) were seeded in a 96-well microculture plate in 180 pL of medium/well. […] DMSO was present in all wells at a final concentration of 0.1%. […] When the appropriate cell density was attained in the control wells, the plates were centrifuged briefly, and 100 pL of the growth medium was removed. The cell cultures were incubated with 50 μL of MTT reagent (1 mg/mL in Dulbecco's phosphate-buffered saline) for 4 hr at 37° C. The resultant purple formazan precipitate was solubilized with 200 μL of 0.04 N HCl in isopropanol.
(§4) The results of each experiment were stored in Excel format.
(§5) d. Preliminary Experiments: Design and Data Analysis. […] The initial experiments utilized serial three-fold dilutions of the drugs to produce ten test concentrations over a broad concentration range. Based on the initial results, a narrower concentration range was selected, and serial 1:1.5 dilutions were utilized to produce ten test concentrations. Experiments were repeated as needed.
(§6) For assays that utilized lower dilution factors to produce narrower concentration ranges, the results were analyzed with both Prism and CalcuSyn (as described below) to allow comparison of the IC50 and Da, values. The results guided the selection of appropriate concentration ranges and concentration ratios for the combination experiments.
(§7) e. Combination Experiments: Design and Data Analysis. The fixed-ratio design of Chou was used for the combination experiments. For each experiment, the drug solutions were mixed at a ratio that was expected to provide approximately equipotent concentrations, and the mixture was serially diluted with medium containing 1% DMSO to yield 10× stock solutions of the test concentrations. […] Each agent was tested individually and in combination at seven concentrations. The concentration range selected for each assay was designed to bracket the concentrations that produced half-maximal effects (ED50) with each single agent and their mixture. The concentrations used for the single-drug assays were twice as high as their concentrations in the mixture. Each assay was performed in quadruplicate. For each drug combination, the individual agents and their mixture were assayed on the same 96-well plate. The effects of the individual drugs and their combinations were analyzed by the method of Chou and Talalay. The results of each experiment were entered into CalcuSyn (BIOSOFT) for dose-effect analysis.
(§8) where Acontrol and Adrug are the respective absorbances of vehicle control and drug-treated wells in the MIT assay.
(§9) where the slope, m, is related to the sigmoidicity of the dose-effect curve, with m=1, >1, and <1 indicating hyperbolic, sigmoidal, and reverse sigmoidal shapes, respectively.

[2] = test system: SKMES human non-small cell lung carcinoma cell line; test: MTT growth inhibition assay, single agents and fixed-ratio combinations with elsamitrucin (Chou-Talalay, CalcuSyn), SKMES; assay type: cell-based
Description: as §1, §2, §3, §4, §5, §6, §7, §8, §9

[3] = i.p., qd x5; cited from earlier work
[4] = test system: Daudi human lymphoma cell line; test: MTT growth inhibition assay, single agents and fixed-ratio combinations with elsamitrucin (Chou-Talalay, CalcuSyn), Daudi; assay type: cell-based
Description: as §1, §2, §3, §4, §5, §6, §7, §8, §9

N.N.[Cl][Pt][Cl] [Cisplatin, cisplatin]
decrease of Dm in the combination ([1]; HT29, in combination with elsamitrucin versus single agent): 38% | IC50 ([1]; HT29, single agent on the same plate as the combination, read-out: Dm Value, Individually, Second Agent): 2330 nM and 1750 nM | IC50 ([1]; SPA-01 (HT29-e21), single agent, dilution 1:3, read-out: Prism IC50): 1850 nM | IC50 ([1]; SPA-04 (HT29-e22), single agent, dilution 1:1.5, read-out: CalcuSyn Dm): 1930 nM | IC50 ([1]; SPA-04 (HT29-e22), single agent, dilution 1:1.5, read-out: Prism IC50): 1860 nM | IC50 ([1]; average of preliminary single-agent experiments, HT29, read-out: Average IC50, Dm value): 1880 nM | IC50 ([2]; SKMES growth inhibition, second agent alone, one value per plate (Experiment ID), read-out: Dm Value (95% Confidence Interval), Individually, Second Agent): 1670 nM | decrease of Dm in the combination ([2]; SKMES, in combination with elsamitrucin versus single agent): 47% | IC50 ([2]; SKMES, single agent on the same plate as the combination, read-out: Dm Value, Individually, Second Agent): 1670 nM | IC50 ([2]; SPA-02 (SKMES-e22), single agent, dilution 1:3, read-out: Prism IC50): 675 nM | IC50 ([2]; SPA-03 (SKMES-e23), single agent, dilution 1:1.5, read-out: CalcuSyn Dm): 1180 nM | IC50 ([2]; SPA-03 (SKMES-e23), single agent, dilution 1:1.5, read-out: Prism IC50): 1140 nM | IC50 ([2]; average of preliminary single-agent experiments, SKMES, read-out: Average IC50, Dm value): 1000 nM | MTD revealed in previous studies [3]: 2.7 mg/kg | IC50 ([4]; Daudi growth inhibition, second agent alone, one value per plate, Table 8 (Supplement), read-out: Dm Value (95% Confidence Interval), Individually, Second Agent): 494 nM | IC50 ([4]; Daudi growth inhibition, second agent alone, Table 8, read-out: Dm Value (95% Confidence Interval), Individually, Second Agent): 494 nM | decrease of Dm in the combination ([4]; Daudi, in combination with elsamitrucin versus single agent): 59% | IC50 ([4]; Daudi, read-out: approximate Dm values for the second drugs as single agents): ~490 nM | IC50 ([4]; SPA-05 (Daudi-e01), single agent, dilution 1:3, read-out: Prism IC50): 367 nM | IC50 ([4]; SPA-08 (Daudi-e02), single agent, dilution 1:1.5, read-out: CalcuSyn Dm): 343 nM | IC50 ([4]; SPA-08 (Daudi-e02), single agent, dilution 1:1.5, read-out: Prism IC50): 344 nM | IC50 ([4]; average of preliminary single-agent experiments, Daudi, read-out: Average IC50, Dm value): 351 nM

— US20080181971A1, “Combination Cancer Treatments Comprising Elsamitrucin and Other Agents” (priority 2007, published 2008)
